Converted amounts (≈) assume the structure as drawn.
Columns and labels:
[1] = target: T1, E. coli pol IIIE (Escherichia coli, UniProt P10443); assay: DNA polymerase assay, E. coli pol IIIE; assay type: biochemical; conditions: 80 μg/mL (190-260 μM) final concentration, all four dNTPs; for inhibition at 80 µg/mL: read-out: Percent Enzymatic Inhibition E. coli pol IIIE
T1 construct: purchased Enzyco, Denver, Colo
Description: (§1) Recombinant, purified pol IIIC and pol IIIE from Bacillus subtilis were obtained using known methods (Hammond et al., Gene 98: 29-36 (1991), regarding pol IIIC; Barnes et al., J. Bacteriol. 184, 3834-3838 (2002), regarding pol IIIE). Recombinant, purified pol IIIE from Escherichia coli was obtained from a commercial source (Enzyco, Denver, Colo.). The enzyme assays were performed in 96-well plate format using the same assay mix for all three enzymes. Each 25 μL assay contained 30 mM Tris, pH 7.5, 10 mM magnesium acetate, 4 mM dithiothreitol, 20% glycerol, with 10 μM dATP, dCTP, dGTP and dTTP (3H-labelled at 1.44 Ci/mmole) and 0.4 mg/mL activated calf thymus DNA as substrates. Dilutions of compounds were added to the plate in 1% DMSO (1 μL/well). Assays were initiated by the addition of 0.025 to 0.06 units of enzyme (1 unit is the amount required to incorporate 250 pmoles of [^3H] dTMP in a standard assay), incubated for 10 min at 30° C. and terminated by the addition of 200 μL of cold 10% trichloroacetic acid, 10 mM sodium pyrophosphate. Precipitated labeled DNA was collected on glass fiber filter plates that had been pre-wet with ice cold 1 M HCl, 100 mM sodium pyrophosphate. The plates were washed with the HCl solution followed by ice cold 90% ethanol and then dried and counted in a liquid scintillation counter. The calculated IC50 is the concentration needed to inhibit 50% of the DNA polymerase activity in the presence of all four dNTP substrates. In addition, percent inhibition values are calculated as the percent reduction in the activity of a DMSO (diluent) control.

[2] = target: T2, B. subtilis pol IIIE (Bacillus subtilis, UniProt O34623); assay: DNA polymerase assay, B. subtilis pol IIIE; assay type: biochemical; conditions: for inhibition at 80 µg/mL: read-out: Percent Enzymatic Inhibition B. subtilis pol IIIE; for IC50: B. subtilis Pol IIIE IC50, 4 dNTPs; for IC50 / B. subtilis Pol IIIE IC50, 4 dNTPs: in the presence of all four dNTP substrates
T2 construct: made in house
T2 sequence (O34623 whole entry): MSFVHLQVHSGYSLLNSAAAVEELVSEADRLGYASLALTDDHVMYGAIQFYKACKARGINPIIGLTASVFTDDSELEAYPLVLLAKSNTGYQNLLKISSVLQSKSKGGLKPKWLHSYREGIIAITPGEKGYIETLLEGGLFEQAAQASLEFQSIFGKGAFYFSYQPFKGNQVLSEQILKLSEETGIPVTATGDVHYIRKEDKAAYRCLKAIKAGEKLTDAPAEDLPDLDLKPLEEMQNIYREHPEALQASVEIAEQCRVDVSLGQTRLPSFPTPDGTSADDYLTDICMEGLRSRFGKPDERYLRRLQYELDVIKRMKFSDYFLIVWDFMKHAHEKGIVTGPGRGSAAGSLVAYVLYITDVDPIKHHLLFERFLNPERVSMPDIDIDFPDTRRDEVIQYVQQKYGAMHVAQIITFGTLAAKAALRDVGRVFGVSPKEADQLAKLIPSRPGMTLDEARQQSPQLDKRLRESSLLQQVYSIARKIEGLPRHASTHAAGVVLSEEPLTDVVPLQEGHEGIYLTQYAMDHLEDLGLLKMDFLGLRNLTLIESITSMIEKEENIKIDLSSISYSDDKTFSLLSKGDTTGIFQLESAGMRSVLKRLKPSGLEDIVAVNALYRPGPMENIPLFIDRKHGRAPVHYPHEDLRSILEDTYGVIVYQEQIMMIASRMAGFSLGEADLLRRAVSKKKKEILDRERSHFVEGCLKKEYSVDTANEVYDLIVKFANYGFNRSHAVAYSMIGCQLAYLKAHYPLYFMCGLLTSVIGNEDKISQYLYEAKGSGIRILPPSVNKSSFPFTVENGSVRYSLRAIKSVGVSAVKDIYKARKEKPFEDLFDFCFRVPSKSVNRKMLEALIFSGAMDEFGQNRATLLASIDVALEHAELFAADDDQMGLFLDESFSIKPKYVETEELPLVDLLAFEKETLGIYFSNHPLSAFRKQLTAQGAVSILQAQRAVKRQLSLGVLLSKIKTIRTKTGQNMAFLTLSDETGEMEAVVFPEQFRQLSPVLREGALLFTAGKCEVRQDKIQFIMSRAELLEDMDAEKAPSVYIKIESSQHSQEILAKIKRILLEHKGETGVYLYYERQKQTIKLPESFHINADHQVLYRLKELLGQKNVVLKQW
Description: as §1

[3] = tested on: S. aureus Smith strain; assay: Inhibition of bacterial growth (MIC), Sm; assay type: cell-based, Staphylococcus aureus; conditions: 16 to 18 hours, 37° C.; for MIC: Staphylococcus aureus, read-out: Minimum Inhibitory Concentration for Bacterial Growth, Sm
Description: (§2) Each compound was assayed against a panel of a strain of Bacillus subtilis, of strains of antibiotic-resistant and sensitive Enterococcus and Staphylococcus species, and of a strain of the Gram-negative bacterium Escherichia coli. Compounds were dissolved in DMSO at 100× the desired highest concentration and added to one well of a 96-well microassay plate. Two-fold serial drug dilutions were made across the plate in DMSO to yield 11 concentrations (usually 80-0.078 μg/mL) plus an untreated control. Drugs were then transferred to fresh plates using 1.5 μL per well. Log phase cultures were diluted to yield a concentration of 1×10^5 colony forming units/mL in either LB or BHI medium and transferred to the plates containing drug for a final volume of 150 μL. Each well, including the DMSO controls, contained a final concentration of 1% DMSO. Plates were incubated with shaking at 37° C. for 16 to 18 hours. Cell growth was determined by measuring optical density (570 nm, 1 cm path length) in a microplate reader. MIC (minimum inhibitory concentration) is equivalent to the lowest concentration at which growth is not observed. The bacterial strains and MIC determinations have been well characterized and are described elsewhere (Tarantino et al., Antimicrob. Agents Chemother., 43: 1982-1987 (1999); Daly et al., Antimicrob. Agents Chemother., 44: 2217-2221 (2000)).

[4] = tested on: Enterococcus faecalis strain 29212; assay: Inhibition of bacterial growth (MIC), Efcl; assay type: cell-based; conditions: 16 to 18 hours, 37° C.; for MIC: read-out: Minimum Inhibitory Concentration for Bacterial Growth, Efcl
Description: as §2

[5] = tested on: E. faecium clinical isolate; assay: Inhibition of bacterial growth (MIC), Efcm; assay type: cell-based; conditions: 16 to 18 hours, 37° C.; for MIC: Enterococcus faecium, read-out: Minimum Inhibitory Concentration for Bacterial Growth, Efcm
Description: as §2

[6] = target: T3, B. subtilis pol IIIC (Bacillus subtilis, UniProt P13267); assay: DNA polymerase assay, B. subtilis pol IIIC; assay type: biochemical; conditions: for Percent Enzymatic Inhibition B. subtilis pol IIIC / inhibition at 80 µg/mL: 80 μg/mL (190-260 μM) final concentration, all four dNTPs; for inhibition at 80 µg/mL: read-out: Percent Enzymatic Inhibition B. subtilis pol IIIC
T3 construct: made in house
T3 sequence (P13267 whole entry): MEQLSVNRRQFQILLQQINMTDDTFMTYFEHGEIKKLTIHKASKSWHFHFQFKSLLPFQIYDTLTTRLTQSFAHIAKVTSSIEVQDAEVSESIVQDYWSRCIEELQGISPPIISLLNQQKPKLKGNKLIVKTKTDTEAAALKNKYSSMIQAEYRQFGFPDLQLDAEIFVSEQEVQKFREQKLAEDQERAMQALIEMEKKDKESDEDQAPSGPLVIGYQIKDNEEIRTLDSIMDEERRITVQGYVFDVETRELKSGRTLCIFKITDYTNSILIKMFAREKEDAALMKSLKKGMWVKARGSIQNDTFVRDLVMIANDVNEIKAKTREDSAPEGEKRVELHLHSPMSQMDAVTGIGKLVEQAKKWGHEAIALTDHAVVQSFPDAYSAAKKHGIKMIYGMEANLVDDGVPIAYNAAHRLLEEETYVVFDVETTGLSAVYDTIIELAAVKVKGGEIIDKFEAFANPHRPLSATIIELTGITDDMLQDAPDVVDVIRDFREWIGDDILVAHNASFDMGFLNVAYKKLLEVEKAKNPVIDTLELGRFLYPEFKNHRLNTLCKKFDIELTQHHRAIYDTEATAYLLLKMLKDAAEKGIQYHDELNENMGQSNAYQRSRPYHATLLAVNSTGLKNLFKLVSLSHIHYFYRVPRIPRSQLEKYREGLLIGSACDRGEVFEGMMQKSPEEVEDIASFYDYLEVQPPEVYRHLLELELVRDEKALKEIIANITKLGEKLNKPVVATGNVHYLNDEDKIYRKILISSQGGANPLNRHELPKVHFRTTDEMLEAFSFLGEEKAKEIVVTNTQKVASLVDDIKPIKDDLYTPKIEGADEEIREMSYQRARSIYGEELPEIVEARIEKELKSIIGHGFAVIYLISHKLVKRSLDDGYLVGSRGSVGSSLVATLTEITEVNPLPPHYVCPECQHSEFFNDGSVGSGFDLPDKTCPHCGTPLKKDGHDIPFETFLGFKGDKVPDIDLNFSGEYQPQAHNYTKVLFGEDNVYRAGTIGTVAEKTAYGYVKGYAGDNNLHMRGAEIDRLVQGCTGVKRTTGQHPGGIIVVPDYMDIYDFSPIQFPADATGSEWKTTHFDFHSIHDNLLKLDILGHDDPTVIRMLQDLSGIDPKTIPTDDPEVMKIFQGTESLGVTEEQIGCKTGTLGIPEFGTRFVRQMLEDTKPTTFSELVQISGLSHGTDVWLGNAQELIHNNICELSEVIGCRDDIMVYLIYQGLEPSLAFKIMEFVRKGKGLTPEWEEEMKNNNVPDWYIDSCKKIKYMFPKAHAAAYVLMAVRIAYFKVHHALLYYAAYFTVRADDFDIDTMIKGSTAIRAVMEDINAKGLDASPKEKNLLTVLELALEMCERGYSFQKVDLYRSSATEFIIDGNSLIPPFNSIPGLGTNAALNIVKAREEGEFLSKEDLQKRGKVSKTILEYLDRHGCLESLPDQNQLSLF
Description: as §1, with “Each 25 μL assay contained 30 mM Tris, pH 7.5, 10 mM magnesium acetate, 4 mM dithiothreitol, 20% glycerol, with 10 μM dATP, dCTP, dGTP and dTTP (3H-labelled at 1.44 Ci/mmole) and 0.4 mg/mL activated calf thymus DNA as substrates.” left out, “The calculated IC50 is the concentration needed to inhibit 50% of the DNA polymerase activity in the presence of all four dNTP substrates.” left out

[7] = tested on: vancomycin-resistant Enterococcus strain B42762; assay: Inhibition of bacterial growth (MIC), VRE; assay type: cell-based; conditions: 16 to 18 hours, 37° C.; for MIC: VRE, read-out: Minimum Inhibitory Concentration for Bacterial Growth, VRE
Description: as §2

[8] = target: T2, B. subtilis pol IIIE; assay: DNA polymerase assay, B. subtilis pol IIIE; assay type: biochemical
[9] = tested on: Staphylococcus aureus strain IP 8; assay: Inhibition of bacterial growth (MIC), Sa; assay type: cell-based; conditions: 37° C.; for MIC: IP8, 16 to 18 hours, read-out: Minimum Inhibitory Concentration for Bacterial Growth, Sa
Description: as §2

[10] = tested on: Escherichia coli strain J53; assay: Inhibition of bacterial growth (MIC), Ec; assay type: cell-based; conditions: 16 to 18 hours, 37° C.; for MIC: read-out: Minimum Inhibitory Concentration for Bacterial Growth, Ec
Description: as §2

[11] = tested on: methicillin-resistant S. aureus strain 1094; assay: Inhibition of bacterial growth (MIC), MRSA; assay type: cell-based, Staphylococcus aureus; conditions: 16 to 18 hours, 37° C.; for MIC: Staphylococcus aureus, MRSA, read-out: Minimum Inhibitory Concentration for Bacterial Growth, MRSA
Description: as §2

[12] = tested on: Bacillus subtilis strain BD54; assay: Inhibition of bacterial growth (MIC), Bs; assay type: cell-based; conditions: 16 to 18 hours, 37° C.; for MIC: read-out: Minimum Inhibitory Concentration for Bacterial Growth, Bs
Description: as §2

[13] = 80 μg/mL (190-260 μM) final concentration, all four dNTPs
[14] = B. subtilis Pol IIIC IC50, −dATP, in the absence of dATP
[15] = B. subtilis Pol IIIC IC50, −dCTP, in the absence of dCTP
[16] = B. subtilis Pol IIIC IC50, −dGTP, in the absence of dGTP
[17] = in the presence of all four dNTP substrates
[18] = B. subtilis Pol IIIE IC50, −dATP, in the absence of dATP
[19] = B. subtilis Pol IIIE IC50, −dCTP, in the absence of dCTP
[20] = B. subtilis Pol IIIE IC50, −dGTP, in the absence of dGTP

T1 sequence (P10443 whole entry): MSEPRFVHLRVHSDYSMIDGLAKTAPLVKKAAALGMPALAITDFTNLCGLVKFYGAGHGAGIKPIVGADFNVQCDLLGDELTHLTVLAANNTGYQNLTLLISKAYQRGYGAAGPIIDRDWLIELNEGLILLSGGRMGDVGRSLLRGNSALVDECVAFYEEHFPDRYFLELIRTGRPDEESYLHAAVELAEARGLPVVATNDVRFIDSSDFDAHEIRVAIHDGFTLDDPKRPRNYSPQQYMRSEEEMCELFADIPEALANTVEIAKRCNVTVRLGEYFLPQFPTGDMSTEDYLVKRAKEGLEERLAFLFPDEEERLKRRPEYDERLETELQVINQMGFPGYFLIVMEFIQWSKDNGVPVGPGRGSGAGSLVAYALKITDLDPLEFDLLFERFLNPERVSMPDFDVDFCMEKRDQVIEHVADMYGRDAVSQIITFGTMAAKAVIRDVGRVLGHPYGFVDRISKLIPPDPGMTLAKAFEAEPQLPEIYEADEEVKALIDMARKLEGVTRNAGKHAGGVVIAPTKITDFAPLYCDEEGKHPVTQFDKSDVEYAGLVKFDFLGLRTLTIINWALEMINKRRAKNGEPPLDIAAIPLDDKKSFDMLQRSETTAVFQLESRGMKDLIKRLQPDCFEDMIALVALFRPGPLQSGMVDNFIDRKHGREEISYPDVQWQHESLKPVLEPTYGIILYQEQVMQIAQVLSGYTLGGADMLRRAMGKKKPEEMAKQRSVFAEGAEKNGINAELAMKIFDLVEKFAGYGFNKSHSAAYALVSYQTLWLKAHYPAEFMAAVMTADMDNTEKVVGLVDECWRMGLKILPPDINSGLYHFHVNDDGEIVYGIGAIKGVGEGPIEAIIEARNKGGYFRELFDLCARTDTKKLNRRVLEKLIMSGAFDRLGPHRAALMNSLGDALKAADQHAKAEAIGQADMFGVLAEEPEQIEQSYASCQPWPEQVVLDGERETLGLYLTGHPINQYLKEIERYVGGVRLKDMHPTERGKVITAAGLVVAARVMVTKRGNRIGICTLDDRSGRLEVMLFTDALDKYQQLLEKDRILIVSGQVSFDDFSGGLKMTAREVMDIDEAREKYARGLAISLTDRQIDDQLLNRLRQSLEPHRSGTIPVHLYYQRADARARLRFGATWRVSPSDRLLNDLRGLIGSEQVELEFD

SMILES	inhibition at 80 µg/mL [2, 13]	IC50 [2]	MIC [3]	MIC [4]	MIC [5]	IC50 [6, 14]	IC50 [6, 15]	IC50 [6, 16]	B. subtilis Pol IIIC IC50, 4 dNTPs [6, 17]	MIC [7]	IC50 [8, 18]	IC50 [8, 19]	IC50 [8, 20]	MIC [9]	MIC [10]	MIC [11]	MIC [12]	inhibition at 80 µg/mL [6]	Percent Enzymatic Inhibition E. coli pol IIIE [1]	further results
COc1cccc(-c2cc(C(=O)NN=Cc3ccc(OC)c(OC)c3)[nH]n2)c1 [Compound 2]	> 20%	604 µM	20 µg/mL (≈ 52.6 µM)	40 µg/mL (≈ 105 µM)	60 µg/mL (≈ 158 µM)	99 µM	287 µM	406 µM	Inactive	40 µg/mL (≈ 105 µM)	57 µM	104 µM	78 µM	10 µg/mL (≈ 26.3 µM)	> 80 µg/mL	20 µg/mL (≈ 52.6 µM)	20 µg/mL (≈ 52.6 µM)	–	–	inhibition at 80 µg/mL [1]: 1.7%; Percent Enzymatic Inhibition B. subtilis pol IIIC [6]: Inactive
COc1cc(C=NNC(=O)c2cc(-c3ccccc3)n[nH]2)ccc1O [Compound 5]	> 20%	205 µM	40 µg/mL (≈ 119 µM)	40 µg/mL (≈ 119 µM)	80 µg/mL (≈ 238 µM)	41 µM	265 µM	89 µM	Inactive	40 µg/mL (≈ 119 µM)	213 µM	383 µM	111 µM	20 µg/mL (≈ 59.5 µM)	> 80 µg/mL	40 µg/mL (≈ 119 µM)	60 µg/mL (≈ 178 µM)	4.8%	–	inhibition at 80 µg/mL [1]: 2%
O=C(NN=Cc1ccc(O)cc1O)c1cc(-c2ccccc2)n[nH]1 [Compound 4]	> 20%	699 µM	60 µg/mL (≈ 186 µM)	> 80 µg/mL	30 µg/mL (≈ 93.1 µM)	81 µM	228 µM	98 µM	Inactive	> 80 µg/mL	278 µM	347 µM	183 µM	30 µg/mL (≈ 93.1 µM)	> 80 µg/mL	40 µg/mL (≈ 124 µM)	40 µg/mL (≈ 124 µM)	15.8%	Inactive	–
CCOc1ccc(-c2cc(C(=O)NN=Cc3ccc(O)c(OC)c3)[nH]n2)cc1 [Compound 19]	10.1%	> 841 µM	> 80 µg/mL	> 80 µg/mL	> 80 µg/mL	9 µM	3.3 µM	5.1 µM	–	10 µg/mL (≈ 26.3 µM)	> 841 µM	> 841 µM	> 841 µM	80 µg/mL (≈ 210 µM)	> 80 µg/mL	5 µg/mL (≈ 13.1 µM)	2.5 µg/mL (≈ 6.57 µM)	> 20%	Inactive	IC50 ([6]; B. subtilis Pol IIIC IC50, 4 dNTPs, in the presence of all four dNTP substrates): 23 µM
CCOc1cc(C=NNC(=O)c2cc(-c3cccc(OC)c3)n[nH]2)ccc1O [Compound 3]	> 20%	–	40 µg/mL (≈ 105 µM)	80 µg/mL (≈ 210 µM)	80 µg/mL (≈ 210 µM)	141 µM	563 µM	301 µM	Inactive	40 µg/mL (≈ 105 µM)	124 µM	222 µM	311 µM	20 µg/mL (≈ 52.6 µM)	> 80 µg/mL	40 µg/mL (≈ 105 µM)	> 80 µg/mL	5.3%	Inactive	B. subtilis Pol IIIE IC50, 4 dNTPs [2]: Inactive
COc1ccc(-c2cc(C(=O)NN=Cc3ccc(O)cc3)[nH]n2)cc1 [Compound 16]	> 20%	–	> 80 µg/mL	> 80 µg/mL	> 80 µg/mL	89 µM	96 µM	60 µM	Inactive	80 µg/mL (≈ 238 µM)	117 µM	156 µM	318 µM	> 80 µg/mL	> 80 µg/mL	> 80 µg/mL	> 80 µg/mL	9.9%	Inactive	B. subtilis Pol IIIE IC50, 4 dNTPs [2]: Inactive
O=C(NN=Cc1cc(Br)ccc1O)c1cc(-c2ccccc2)n[nH]1 [Compound 6]	–	–	–	–	–	–	–	–	–	–	–	–	–	–	–	–	–	–	9.0%	Percent Enzymatic Inhibition B. subtilis pol IIIE [2, 13]: 7.7%; Minimum Inhibitory Concentration for Bacterial Growth, Sm [3]: >80 µg/mL; Minimum Inhibitory Concentration for Bacterial Growth, Efcl [4]: 8 µg/mL; Minimum Inhibitory Concentration for Bacterial Growth, Efcm [5]: 10 µg/mL; Percent Enzymatic Inhibition B. subtilis pol IIIC [6]: 11.3%; Minimum Inhibitory Concentration for Bacterial Growth, VRE [7]: 8 µg/mL; Minimum Inhibitory Concentration for Bacterial Growth, Sa ([9]; 16 to 18 hours): 10 µg/mL; Minimum Inhibitory Concentration for Bacterial Growth, Ec [10]: >80 µg/mL; Minimum Inhibitory Concentration for Bacterial Growth, MRSA [11]: 40 µg/mL; Minimum Inhibitory Concentration for Bacterial Growth, Bs [12]: >80 µg/mL

From US20060258729A1, “Antibacterial pyrazole carboxylic acid hydrazides” (priority 2002, published 2006)
